Source: PubChem BioAssay (NCI)
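Dose response: 5 concentrations. Exposure: 48 h. Format: 96-well plates. Endpoint: linear interpolation; highest concentration if not reached. TGI denotes the concentration required for complete inhibition of growth.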

Legend:
Assay in all cases: NCI anticancer screen, dose series, 48 h
EKVX NSCLC = system: EKVX NSCLC
HCT-116 colon = system: HCT-116 colon
HS 578T breast = system: HS 578T breast
HT29 colon = system: HT29 colon
K-562 leukemia = system: K-562 leukemia
LOX IMVI melanoma = system: LOX IMVI melanoma
NCI-H460 lung = system: NCI-H460 lung
OVCAR-4 ovarian = system: OVCAR-4 ovarian
RPMI-8226 leukemia = system: RPMI-8226 leukemia
SK-MEL-2 melanoma = system: SK-MEL-2 melanoma
SK-MEL-5 melanoma = system: SK-MEL-5 melanoma
SK-OV-3 ovarian = system: SK-OV-3 ovarian
TK-10 renal = system: TK-10 renal

SMILES | TGI (EKVX NSCLC) [µM] | TGI (HCT-116 colon) [µM] | TGI (HS 578T breast) [µM] | TGI (HT29 colon) [µM] | TGI (K-562 leukemia) [µM] | TGI (LOX IMVI melanoma) [µM] | TGI (NCI-H460 lung) [µM] | TGI (OVCAR-4 ovarian) [µM] | TGI (RPMI-8226 leukemia) [µM] | TGI (SK-MEL-2 melanoma) [µM] | TGI (SK-MEL-5 melanoma) [µM] | TGI (SK-OV-3 ovarian) [µM] | TGI (TK-10 renal) [µM]
CCOC(=O)N(C)CCC1CC=CC(=O)C1c1cccc(OC)c1OC (stereo unspecified) | 89.8 | 27.6 | > 100 | 34.1 | > 100 | > 100 | 48.2 | > 100 | 46.6 | 35 | 22 | > 100 | 65.3
CCOC(=O)Nn1cnnc1Cc1ccccc1 | > 100 | > 100 | 81.4 | > 100 | > 100 | > 100 | > 100 | > 100 | > 100 | > 100 | > 100 | > 100 | > 100
O=C1CSC2(CC(/C=C/c3cccc(Br)c3)=NN2c2cccc(S(=O)(=O)O)c2)N1c1nc2ccccc2s1 (stereo unspecified) | > 100 | > 100 | > 100 | > 100 | > 100 | > 100 | > 100 | > 100 | > 100 | > 100 | > 100 | > 100 | > 100
Cc1nc2ccc(S(=O)(=O)Nc3ccccn3)cc2c(=O)n1NS(=O)(=O)c1ccccn1 | > 100 | > 100 | > 100 | > 100 | > 100 | > 100 | > 100 | > 100 | > 100 | > 100 | > 100 | > 100 | > 100
Cc1cc(Cl)ccc1NC(=O)/C(Cc1nc2ccc(C(=O)c3ccccc3)cc2[nH]c1=O)=N/NC(=O)c1ccncc1 | > 100 | > 100 | > 100 | > 100 | > 100 | > 100 | > 100 | > 100 | > 100 | > 100 | > 100 | > 100 | > 100
COc1ccccc1/[N+]([O-])=C/c1ccccc1OC(=S)S | > 100 | > 100 | > 100 | > 100 | > 100 | > 100 | > 100 | > 100 | 63.7 | 80.2 | > 100 | > 100 | > 100
COc1ccc(OC)c2sc(N3C(=O)/C(=C/c4ccc(N(C)C)cc4)N=C3c3ccccc3)nc12 | > 100 | > 100 | > 100 | > 100 | > 100 | > 100 | > 100 | > 100 | > 100 | > 100 | > 100 | > 100 | > 100
